The record followed here is patent US7074789B2, “Kinase inhibitors” (Amgen Inc., priority 1999, dated 2006).

Assay type in all cases: biochemical
One assay concerns the target T1, Ret-1 (Homo sapiens, UniProt P07949).
T1 construct: Kinases are expressed as either kinase domains or full length constructs; made in house
Nature of the assay: Kinase inhibition assay (33P transfer), Ret. The note with it: Table 6, Ret-1 kinase inhibition class.

In a further assay the target is T2, Tek (Homo sapiens, UniProt Q02763).
T2 construct: Kinases are expressed as either kinase domains or full length constructs; made in house
The assay can be described thus: Kinase inhibition assay (33P transfer), Tek. The note with it: read-out: Tek-1. An outline of the steps: (§1)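 Read-out: scintillation counts of 33P moved from ATP onto synthetic peptide polymer coated on the well surface, after washing with 0.5% phosphoric acid. Enzymes were tagged (GST or polyHistidine) and came from bacterial or insect-cell expression. IC50 marks 50% loss of incorporated label.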

A further assay deals with T3, Lyn (Homo sapiens, UniProt P07948).
T3 construct: Kinases are expressed as either kinase domains or full length constructs; made in house
The assay can be described thus: Kinase inhibition assay (33P transfer), Lyn. The note with it: Table 6, Lyn-1 kinase inhibition class. An outline of the steps: as §1

A further assay concerns the target T4, ErbB2 (Homo sapiens, UniProt P04626).
T4 construct: Kinases are expressed as either kinase domains or full length constructs; made in house
Nature of the assay: Kinase inhibition assay (33P transfer), ErbB2. Conditions: read-out: ErbB2-2. An outline of the steps: as §1

For the next assay, the target named is T5, EPHB4 (Homo sapiens, UniProt P54760).
T5 construct: Kinases are expressed as either kinase domains or full length constructs; made in house
T5 sequence (P54760 16-987): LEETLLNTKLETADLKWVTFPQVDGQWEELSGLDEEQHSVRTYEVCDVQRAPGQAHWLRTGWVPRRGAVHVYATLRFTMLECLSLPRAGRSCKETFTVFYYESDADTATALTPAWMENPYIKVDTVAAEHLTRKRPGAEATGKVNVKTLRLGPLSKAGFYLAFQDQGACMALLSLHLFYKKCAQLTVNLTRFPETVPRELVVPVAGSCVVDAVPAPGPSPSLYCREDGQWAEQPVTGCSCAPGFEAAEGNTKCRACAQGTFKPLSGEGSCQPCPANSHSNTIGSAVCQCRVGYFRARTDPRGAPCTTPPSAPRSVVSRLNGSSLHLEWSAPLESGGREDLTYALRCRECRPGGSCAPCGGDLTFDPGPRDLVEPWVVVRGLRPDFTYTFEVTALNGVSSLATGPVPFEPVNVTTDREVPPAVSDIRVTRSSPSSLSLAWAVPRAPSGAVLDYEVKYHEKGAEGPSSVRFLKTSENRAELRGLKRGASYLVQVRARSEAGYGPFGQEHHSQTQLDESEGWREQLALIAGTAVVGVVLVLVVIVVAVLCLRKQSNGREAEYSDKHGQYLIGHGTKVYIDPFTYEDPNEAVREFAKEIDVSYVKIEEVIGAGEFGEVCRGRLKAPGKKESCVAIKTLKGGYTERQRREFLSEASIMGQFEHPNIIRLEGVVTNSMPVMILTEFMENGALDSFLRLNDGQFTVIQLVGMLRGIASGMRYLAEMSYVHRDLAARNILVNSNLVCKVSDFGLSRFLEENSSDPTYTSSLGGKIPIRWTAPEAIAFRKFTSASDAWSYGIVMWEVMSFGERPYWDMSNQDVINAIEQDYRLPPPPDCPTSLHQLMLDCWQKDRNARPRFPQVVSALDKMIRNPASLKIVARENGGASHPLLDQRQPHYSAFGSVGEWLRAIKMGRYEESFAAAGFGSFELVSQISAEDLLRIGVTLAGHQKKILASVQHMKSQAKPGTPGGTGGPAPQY
The assay can be described thus: Kinase inhibition assay (33P transfer), EPHB4. The note with it: read-out: EPHB4-1.

A further assay addresses T6, Zap-70 (Homo sapiens, UniProt P43403).
T6 construct: Kinases are expressed as either kinase domains or full length constructs; made in house
T6 sequence (P43403 1-619): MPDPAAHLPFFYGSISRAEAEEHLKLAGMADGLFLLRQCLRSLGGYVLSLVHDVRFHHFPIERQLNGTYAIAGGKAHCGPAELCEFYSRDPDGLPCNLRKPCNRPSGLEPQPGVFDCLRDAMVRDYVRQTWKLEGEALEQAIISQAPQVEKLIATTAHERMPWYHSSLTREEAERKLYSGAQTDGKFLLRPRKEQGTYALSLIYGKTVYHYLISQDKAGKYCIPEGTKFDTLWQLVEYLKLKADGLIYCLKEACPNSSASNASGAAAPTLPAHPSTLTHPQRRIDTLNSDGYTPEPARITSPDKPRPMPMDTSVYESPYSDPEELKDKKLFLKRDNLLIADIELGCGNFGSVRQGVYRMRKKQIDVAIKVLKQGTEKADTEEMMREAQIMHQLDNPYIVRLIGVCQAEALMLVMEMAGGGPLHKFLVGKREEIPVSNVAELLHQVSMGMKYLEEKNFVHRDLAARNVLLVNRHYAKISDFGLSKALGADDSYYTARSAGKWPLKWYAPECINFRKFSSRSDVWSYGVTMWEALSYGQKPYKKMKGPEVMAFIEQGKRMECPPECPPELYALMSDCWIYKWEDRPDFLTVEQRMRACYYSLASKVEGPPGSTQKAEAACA
The assay can be described thus: Kinase inhibition assay (33P transfer), Zap-70. The note with it: Table 3; read-out: Zap-1. An outline of the steps:
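Steps: express kinase as GST or polyHistidine fusion in E. coli or High Five cells; optionally co-express or mix with regulatory polypeptides; incubate with 33P-ATP and plate-attached poly(Glu,Tyr) 4:1 or poly(Arg,Ser) 3:1; wash with 0.5% phosphoric acid; count by liquid scintillation.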

For the next assay, the target named is T7, ErbB4 (Homo sapiens, UniProt Q15303).
T7 construct: Kinases are expressed as either kinase domains or full length constructs; made in house
The assay can be described thus: Kinase inhibition assay (33P transfer), ErbB4. Conditions: read-out: ErbB4-1.

The structures appear in SMILES notation. Some results are limits rather than exact numbers.

T1 sequence (P07949 29-1114): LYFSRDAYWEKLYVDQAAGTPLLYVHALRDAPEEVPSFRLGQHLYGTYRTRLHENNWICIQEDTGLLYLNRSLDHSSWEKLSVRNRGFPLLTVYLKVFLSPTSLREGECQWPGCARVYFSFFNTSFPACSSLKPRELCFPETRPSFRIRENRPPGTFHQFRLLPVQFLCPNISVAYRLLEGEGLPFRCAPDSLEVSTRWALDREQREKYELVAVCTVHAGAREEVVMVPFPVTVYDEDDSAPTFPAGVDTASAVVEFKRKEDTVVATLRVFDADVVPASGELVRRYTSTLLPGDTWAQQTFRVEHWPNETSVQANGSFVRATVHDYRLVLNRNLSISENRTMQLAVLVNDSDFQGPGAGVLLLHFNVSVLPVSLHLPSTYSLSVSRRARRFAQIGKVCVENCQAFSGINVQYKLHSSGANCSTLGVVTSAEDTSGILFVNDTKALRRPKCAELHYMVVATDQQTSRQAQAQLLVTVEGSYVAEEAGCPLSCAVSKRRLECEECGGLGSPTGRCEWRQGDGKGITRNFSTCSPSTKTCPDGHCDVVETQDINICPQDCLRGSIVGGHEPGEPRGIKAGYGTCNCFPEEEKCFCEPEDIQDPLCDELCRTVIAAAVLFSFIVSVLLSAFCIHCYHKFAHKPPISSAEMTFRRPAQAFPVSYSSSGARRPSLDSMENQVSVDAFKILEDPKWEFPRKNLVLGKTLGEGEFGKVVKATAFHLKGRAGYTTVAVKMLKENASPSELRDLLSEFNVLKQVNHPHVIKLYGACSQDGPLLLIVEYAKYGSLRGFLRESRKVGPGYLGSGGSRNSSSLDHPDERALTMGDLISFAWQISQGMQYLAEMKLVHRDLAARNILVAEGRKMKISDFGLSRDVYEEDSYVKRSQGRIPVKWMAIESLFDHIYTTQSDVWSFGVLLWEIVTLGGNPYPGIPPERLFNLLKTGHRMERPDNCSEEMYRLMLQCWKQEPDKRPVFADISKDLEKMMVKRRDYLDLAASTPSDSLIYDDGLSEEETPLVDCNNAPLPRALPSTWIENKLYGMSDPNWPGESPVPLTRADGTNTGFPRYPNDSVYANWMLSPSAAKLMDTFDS
T2 sequence (Q02763 23-1124, species assumed): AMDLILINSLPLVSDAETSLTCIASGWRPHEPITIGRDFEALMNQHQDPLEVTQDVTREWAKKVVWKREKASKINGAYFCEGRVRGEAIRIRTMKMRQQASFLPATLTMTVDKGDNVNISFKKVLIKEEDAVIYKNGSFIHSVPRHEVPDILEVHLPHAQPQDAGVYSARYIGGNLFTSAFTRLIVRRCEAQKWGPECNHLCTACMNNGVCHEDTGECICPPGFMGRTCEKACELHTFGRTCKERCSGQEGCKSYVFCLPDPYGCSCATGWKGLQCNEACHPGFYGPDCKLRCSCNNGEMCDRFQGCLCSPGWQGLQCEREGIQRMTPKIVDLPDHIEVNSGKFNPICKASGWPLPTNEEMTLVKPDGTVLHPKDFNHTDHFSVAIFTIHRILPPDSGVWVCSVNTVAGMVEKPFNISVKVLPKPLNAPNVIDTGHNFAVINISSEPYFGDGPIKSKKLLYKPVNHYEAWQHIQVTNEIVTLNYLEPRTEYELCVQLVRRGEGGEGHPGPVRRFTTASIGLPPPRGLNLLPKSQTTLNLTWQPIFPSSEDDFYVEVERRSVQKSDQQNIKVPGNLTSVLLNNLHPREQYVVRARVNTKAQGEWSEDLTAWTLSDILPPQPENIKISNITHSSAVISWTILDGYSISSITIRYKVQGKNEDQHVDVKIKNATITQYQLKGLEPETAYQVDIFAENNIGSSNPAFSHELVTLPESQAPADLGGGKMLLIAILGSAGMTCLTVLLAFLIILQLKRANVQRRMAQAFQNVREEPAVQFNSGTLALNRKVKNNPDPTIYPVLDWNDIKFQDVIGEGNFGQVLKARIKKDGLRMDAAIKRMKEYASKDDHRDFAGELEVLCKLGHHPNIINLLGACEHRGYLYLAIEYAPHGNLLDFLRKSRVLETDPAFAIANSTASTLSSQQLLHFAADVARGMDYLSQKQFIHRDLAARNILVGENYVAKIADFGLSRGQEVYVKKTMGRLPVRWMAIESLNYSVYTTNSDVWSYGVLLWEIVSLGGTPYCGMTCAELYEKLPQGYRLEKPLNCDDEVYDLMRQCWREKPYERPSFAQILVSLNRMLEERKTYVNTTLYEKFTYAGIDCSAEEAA
T7 sequence (Q15303 26-1308, species assumed): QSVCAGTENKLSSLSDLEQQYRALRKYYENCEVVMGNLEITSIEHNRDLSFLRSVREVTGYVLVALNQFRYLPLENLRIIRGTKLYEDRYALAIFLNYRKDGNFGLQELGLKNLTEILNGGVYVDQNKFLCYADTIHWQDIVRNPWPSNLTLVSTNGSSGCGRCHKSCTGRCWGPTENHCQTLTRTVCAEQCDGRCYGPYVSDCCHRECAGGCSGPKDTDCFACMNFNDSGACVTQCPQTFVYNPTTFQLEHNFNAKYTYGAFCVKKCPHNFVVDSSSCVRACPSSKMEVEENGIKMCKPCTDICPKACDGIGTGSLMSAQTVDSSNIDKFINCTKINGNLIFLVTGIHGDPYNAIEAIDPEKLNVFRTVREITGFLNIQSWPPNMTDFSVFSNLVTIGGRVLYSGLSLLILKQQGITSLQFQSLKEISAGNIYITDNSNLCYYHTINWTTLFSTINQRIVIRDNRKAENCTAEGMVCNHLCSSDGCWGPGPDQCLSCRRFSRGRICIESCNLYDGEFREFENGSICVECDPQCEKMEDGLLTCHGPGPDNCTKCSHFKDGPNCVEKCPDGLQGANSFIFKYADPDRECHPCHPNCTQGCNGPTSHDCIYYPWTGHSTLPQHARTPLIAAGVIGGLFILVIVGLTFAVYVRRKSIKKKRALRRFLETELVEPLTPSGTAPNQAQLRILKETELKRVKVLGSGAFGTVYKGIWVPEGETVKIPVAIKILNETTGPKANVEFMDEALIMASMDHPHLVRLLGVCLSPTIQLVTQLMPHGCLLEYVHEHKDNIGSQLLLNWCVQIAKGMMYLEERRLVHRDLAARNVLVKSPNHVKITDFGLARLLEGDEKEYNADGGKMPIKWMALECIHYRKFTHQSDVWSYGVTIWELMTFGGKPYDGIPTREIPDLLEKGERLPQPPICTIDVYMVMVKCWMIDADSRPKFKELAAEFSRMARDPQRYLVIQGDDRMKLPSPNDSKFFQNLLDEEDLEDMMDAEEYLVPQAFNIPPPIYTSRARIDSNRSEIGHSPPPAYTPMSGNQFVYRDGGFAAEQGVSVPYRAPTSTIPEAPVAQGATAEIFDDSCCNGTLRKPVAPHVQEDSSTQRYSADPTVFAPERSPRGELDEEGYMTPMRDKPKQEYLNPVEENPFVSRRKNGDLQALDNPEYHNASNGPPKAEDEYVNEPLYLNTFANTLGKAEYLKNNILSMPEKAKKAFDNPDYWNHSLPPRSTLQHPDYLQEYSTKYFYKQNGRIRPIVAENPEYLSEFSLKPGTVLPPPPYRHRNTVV
T4 sequence (P04626 23-1255, species assumed): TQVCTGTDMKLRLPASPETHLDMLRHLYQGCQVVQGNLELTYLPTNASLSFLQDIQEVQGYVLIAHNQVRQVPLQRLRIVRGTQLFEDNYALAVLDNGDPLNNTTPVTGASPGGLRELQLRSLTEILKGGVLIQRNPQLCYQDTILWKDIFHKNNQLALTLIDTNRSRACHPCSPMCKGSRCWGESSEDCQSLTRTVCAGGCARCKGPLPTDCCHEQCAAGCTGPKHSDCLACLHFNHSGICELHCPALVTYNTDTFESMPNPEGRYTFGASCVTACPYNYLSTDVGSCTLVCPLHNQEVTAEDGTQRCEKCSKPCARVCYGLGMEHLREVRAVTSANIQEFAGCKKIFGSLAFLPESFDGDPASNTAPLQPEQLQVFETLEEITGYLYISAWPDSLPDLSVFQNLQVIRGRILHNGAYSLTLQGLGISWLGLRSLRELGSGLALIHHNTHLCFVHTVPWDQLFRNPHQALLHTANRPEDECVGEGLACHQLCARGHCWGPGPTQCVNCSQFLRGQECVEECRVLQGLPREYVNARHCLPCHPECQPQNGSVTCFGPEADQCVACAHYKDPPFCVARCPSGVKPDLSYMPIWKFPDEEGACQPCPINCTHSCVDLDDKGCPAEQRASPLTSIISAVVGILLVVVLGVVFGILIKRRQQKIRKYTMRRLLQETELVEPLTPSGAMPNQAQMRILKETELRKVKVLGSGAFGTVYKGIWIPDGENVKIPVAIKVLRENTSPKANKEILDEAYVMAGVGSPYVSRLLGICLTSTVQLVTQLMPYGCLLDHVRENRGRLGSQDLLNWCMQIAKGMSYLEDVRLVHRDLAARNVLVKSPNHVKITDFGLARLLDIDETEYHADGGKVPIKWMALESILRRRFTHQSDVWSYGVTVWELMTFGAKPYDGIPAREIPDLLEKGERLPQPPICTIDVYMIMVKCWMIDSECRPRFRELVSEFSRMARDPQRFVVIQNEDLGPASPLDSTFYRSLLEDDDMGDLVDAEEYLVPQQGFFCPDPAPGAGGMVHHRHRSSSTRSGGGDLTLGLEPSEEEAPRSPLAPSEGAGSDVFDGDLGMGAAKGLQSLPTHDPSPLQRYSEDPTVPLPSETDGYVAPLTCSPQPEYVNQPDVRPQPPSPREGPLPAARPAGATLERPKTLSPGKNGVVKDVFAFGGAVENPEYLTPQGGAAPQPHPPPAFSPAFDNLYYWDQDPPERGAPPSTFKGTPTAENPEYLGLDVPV

`COc1cc(Nc2ncnc(Nc3cccc(C)c3)n2)cc(OC)c1OC` [Compound 64]: the IC50 on Ret-1 is above 12.2 µM; on Tek it was above 12.2 µM; at Lyn, below 1.09 µM; at ErbB2, 1.09 to 6.53 µM; on EPHB4, 1.09 to 6.53 µM; on Zap-70 it was 9.53 to 12.2 µM. In addition, on ErbB4, the IC50 is above 12.2 µM.
With `COc1cc(Nc2ncnc(Nc3ccc4[nH]ncc4c3)n2)cc(OC)c1OC` [Compound 79], the IC50 on Ret-1 is above 11.4 µM; on Tek, above 11.4 µM; on Lyn it was below 1.02 µM; at EPHB4 it was below 1.02 µM; on Zap-70 it was above 11.4 µM; at ErbB4, 1.02 to 6.1 µM.
Turning to `COc1cc(Nc2ncnc(Nc3ccc(C)c(O)c3)n2)cc(OC)c1OC` [Compound 83], the IC50 was below 1.04 µM on Ret-1; 9.13 to 11.7 µM at Tek; below 1.04 µM on Lyn; below 1.04 µM on ErbB2; 1.04 to 6.26 µM on EPHB4; above 11.7 µM at Zap-70. In addition, at ErbB4, the IC50 lay within 1.04 to 6.26 µM.
`COc1cc(Nc2ncnc(Nc3ccc(O)cc3)n2)cc(OC)c1OC` [Compound 85]: the IC50 against Ret-1 was 1.08 to 6.5 µM; at Tek it was above 12.2 µM; on Lyn, below 1.08 µM; on EPHB4 it was 1.08 to 6.5 µM; on Zap-70, above 12.2 µM; on ErbB4 it was 1.08 to 6.5 µM.
With `COc1cc(Nc2ncnc(Nc3cc(OC)c(OC)c(OC)c3)n2)cc(OC)c1` [Compound 86], the IC50 against Ret-1 was 0.968 to 5.81 µM; on Tek it was above 10.9 µM; against Lyn it was above 10.9 µM; on ErbB2, 0.968 to 5.81 µM; on EPHB4 it was above 10.9 µM; at Zap-70, above 10.9 µM. Also, at ErbB4, the IC50 lay in the range of 0.968 to 5.81 µM.
On to `COc1cccc(Nc2ncnc(Nc3cc(OC)c(OC)c(OC)c3)n2)c1` [Compound 87], for which the IC50 is 1.04 to 6.26 µM on Ret-1; above 11.7 µM on Tek; 1.04 to 6.26 µM against Lyn; below 1.04 µM at ErbB2; above 11.7 µM on EPHB4; 9.13 to 11.7 µM on Zap-70. The IC50 at ErbB4 lay in the range of 9.13 to 11.7 µM.
For the compound `COc1cc(Nc2ncnc(Nc3cc(C)c(O)cc3C)n2)cc(OC)c1OC` [Compound 94], the IC50 on Ret-1 is above 11.3 µM; on Tek, above 11.3 µM; against Lyn, below 1.01 µM; on EPHB4 it was 1.01 to 6.04 µM; at Zap-70, above 11.3 µM; at ErbB4 it was 1.01 to 6.04 µM.
In the case of `COc1cc(Nc2ncnc(Nc3ccc4ccccc4c3)n2)cc(OC)c1OC` [Compound 96], the IC50 at Ret-1 was 5.95 to 8.68 µM; at Tek, above 11.2 µM; on Lyn it was 0.991 to 5.95 µM; at ErbB2 it was below 0.991 µM; at EPHB4, above 11.2 µM; at Zap-70 it was 8.68 to 11.2 µM. For the same compound, the IC50 on ErbB4 lay within 0.991 to 5.95 µM.
For the compound `COc1cc(Nc2ncnc(Nc3cccc4cccnc34)n2)cc(OC)c1OC` [Compound 97], the IC50 against Ret-1 is 0.989 to 5.93 µM; at Tek, above 11.1 µM; at Lyn, 0.989 to 5.93 µM; at ErbB2 it was above 11.1 µM; on EPHB4 it was above 11.1 µM; on Zap-70, above 11.1 µM. In addition, the IC50 on ErbB4 was above 11.1 µM.
On to `COc1cc(Nc2ncnc(Nc3cccc4ccccc34)n2)cc(OC)c1OC` [Compound 98], for which the IC50 was above 11.2 µM against Ret-1; above 11.2 µM at Tek; 0.991 to 5.95 µM against Lyn; below 0.991 µM at ErbB2; above 11.2 µM at EPHB4; above 11.2 µM at Zap-70. Besides, the IC50 at ErbB4 is above 11.2 µM.
For `COc1cc(Nc2ncnc(Nc3cc(-c4ccccc4)n[nH]3)n2)cc(OC)c1OC` [Compound 102], the IC50 on Ret-1 is 0.954 to 5.72 µM; on Tek, 5.72 to 8.34 µM; on Lyn, below 0.954 µM; on ErbB2, 0.954 to 5.72 µM; at EPHB4 it was below 0.954 µM; at Zap-70, above 10.7 µM. For the same compound, on ErbB4, the IC50 was below 0.954 µM.
In the case of `COc1cc(Nc2ncnc(-n3c(N)nc4ccccc43)n2)cc(OC)c1OC` [Compound 289], the IC50 against Ret-1 is 1.02 to 6.1 µM; on Tek, 1.02 to 6.1 µM; at Lyn it was 6.1 to 8.9 µM; at ErbB2, above 11.4 µM; on EPHB4, 1.02 to 6.1 µM; at Zap-70 it was above 11.4 µM. The IC50 at ErbB4 was above 11.4 µM.
On to `NC(=O)c1ccc(Nc2ncnc(Nc3cc(-c4ccco4)n[nH]3)n2)cc1` [Compound 341], for which the IC50 was below 1.1 µM at Ret-1; above 12.4 µM on Tek; above 12.4 µM on Lyn; 1.1 to 6.62 µM on EPHB4; above 12.4 µM on Zap-70; above 12.4 µM at ErbB4.
Consider `COC(=O)c1cccc(Nc2ncnc(Nc3cc(-c4ccco4)n[nH]3)n2)c1` [Compound 344], for which the IC50 against Ret-1 is 1.06 to 6.36 µM; on Tek, above 11.9 µM; at Lyn it was above 11.9 µM; on EPHB4, 1.06 to 6.36 µM; on Zap-70, above 11.9 µM; on ErbB4, above 11.9 µM.
Turning to `COc1cc(Nc2ncnc(-n3cc(CC(N)=O)c4ccccc43)n2)cc(OC)c1OC` [Compound 353], the IC50 against Ret-1 is below 0.921 µM; at Tek it was above 10.4 µM; against Lyn, above 10.4 µM; on EPHB4, above 10.4 µM; on Zap-70, above 10.4 µM; on ErbB4, above 10.4 µM.
For the compound `O=C1OCc2ccc(Nc3ncnc(Nc4cc(-c5ccco5)n[nH]4)n3)cc21` [Compound 364], the IC50 is 1.07 to 6.39 µM at Ret-1; above 12 µM on Tek; 9.32 to 12 µM against Lyn; 1.07 to 6.39 µM on EPHB4; above 12 µM at Zap-70; above 12 µM on ErbB4.
Consider `COc1cc(Nc2ncnc(Nc3ccc(OCc4ccccc4)cc3)n2)cc(OC)c1OC` [Compound 926], for which the IC50 at Ret-1 was 7.62 to 9.79 µM; at Tek it was 7.62 to 9.79 µM; against Lyn, 0.871 to 5.22 µM; on EPHB4, above 9.79 µM; at Zap-70, 5.22 to 7.62 µM; on ErbB4, above 9.79 µM.
`COc1cc(Nc2ncnc(Nc3ccc4[nH]ccc4c3)n2)cc(OC)c1OC` [Compound 928]: the IC50 at Ret-1 was below 1.02 µM; on Tek it was above 11.5 µM; against Lyn, below 1.02 µM; at ErbB2 it was below 1.02 µM; on EPHB4, below 1.02 µM; on Zap-70, above 11.5 µM. At ErbB4, the IC50 fell in the range of 1.02 to 6.12 µM.
